Experimental data taken from US5541174A, “Analgesic method” (priority 1995, dated 1996).
Where two headings read alike, the source gives them in different places.

How the values were obtained:
[1] = tested on: acetic acid induced writhing in mice; experiment: Acetic acid-induced writhing test; type: in vivo, ICR male mice; conditions: for activity versus other copper complexes and parent ligand: Table VI
Procedure: 1. Acetic acid-induced writhing test as described in Koster et al., "Acetic Acid for Analgesic Screening", Fed. Proc. 18, 412 (1959), incorporated by reference herein; and
Groups of 10 ICR male mice (Taisho Pharmaceutical Co. Research Center) were used to study each dose of every compound. Ligands or complexes were administered orally or subcutaneously in 0.1 ml of vehicle per 10 g of body weight 30 minutes before the intrapertioneal injection of 0.1 ml of 0.7% acetic acid solution per 10 g of body weight. Number of writhes were counted for each mouse during a period of 10 to 20 min after acetic acid injection. Inhibitory percent was calculated by comparison with the number of writhes in the non-treated control, vehicle-treated, and acetic acid-injected group. The ED50 value and 95% confidence limits were calculated from the inhibitory percent by the method of Litchfield and Wilcoxon.

[2] = tested on: adjuvant-induced arthritic pain in rats; experiment: Adjuvant-induced arthritic pain; type: in vivo, male Sprague-Dawley rats
From the text: 2. Adjuvant-induced arthritic pain as described in:
S. KUZNA, et al., Measurement of Arthritic Pain and Effects of Analgesics in the Adjuvant-Treated Rat, Chem. Pharm. Bull. 23, 1184-1191 (1975);
C. A. WINTER, et al., Analgesic Activity of Diflunisal in Rats with Hyperalygesia Induced by Freud's Adjuvant, J. Pharmacol. Exp. Ther. 211, 678-685 (1979; and
M. E. ROSENTHALE, et al., Adjuvant Arthritis:Immuno-Pathological and Hyperalgesic Features, Fed. Proced. 41, 2577-2582 (1982),
incorporated by reference herein.
Groups of 5-6 male Sprague-Dawley rats (Taisho Pharmaceutical Co. Research Center) weighing 140 to 160 g at the time of Mycobacterium butyricum (adjuvant, Difco Laboratories, Detroit, Mich.) injection were used to study each compound. Rats were injected intradermally at the base of the tail with 0.1 ml of a parafin oil suspension of 0.5 mg of heat-killed mycobacterium. Fifteen to 19 days later, drugs were administered orally or subcutaneously in 0.5 ml of vehicle per 100 g of body weight to rats showing the nociceptive reaction, vocalization following a gentle flexion of the tarsal-tibial joint of the inflamed hind-paw. Vocalization responses were measured every hour for 5 hours. […] The ED50 value and 95% confidence limits were calculated from the positive rate for non-treated controls, vehicle-treated adjuvant arthritic rats, by the method of Litchfield and Wilcoxin.
All drugs were suspended with 5% gum arabic in saline solution or wetted with enough propylene glycol to give a final concentration of 4% propylene glycol and the wetted solid suspended in 1.4% polyvinyl alcohol in saline.

[3] = oral, 5% gum arabic, 0.45 mmol/kg
[4] = oral, 5% gum arabic, 0.90 mmol/kg
[5] = oral, 5% gum arabic, 1.46 mmol/kg
[6] = oral, 5% gum arabic, 0.56 mmol/kg
[7] = oral, 5% gum arabic, 1.11 mmol/kg
[8] = oral, 5% gum arabic, 0.20 mmol/kg
[9] = oral, 5% gum arabic, 0.40 mmol/kg
[10] = oral, 5% gum arabic, 0.42 mmol/kg
[11] = oral, 5% gum arabic, 0.33 mmol/kg

Structure (SMILES): CC(C)c1cc(C(=O)O)c(O)c(C(C)C)c1 [3,5-Dips, 3,5-diisopropylsalicylic acid, reference compound]
- ED50 ([1]; oral, 5% gum arabic in saline): 0.27 mmol/kg
- % Inhibition [1, 3]: 66%
- % Inhibition [1, 4]: 88%
- ED50 ([1]; oral, PG-PVA in saline): 0.44 mmol/kg
- % Inhibition ([1]; oral, PG-PVA, 0.45 mmol/kg): 56%
- % Inhibition ([1]; oral, PG-PVA, 0.90 mmol/kg): 78%
- ED50 ([1]; s.c., PG-PVA in saline): 0.23 mmol/kg
- % Inhibition ([1]; s.c., PG-PVA, 0.11 mmol/kg): 22%
- % Inhibition ([1]; s.c., PG-PVA, 0.23 mmol/kg): 49%
- % Inhibition ([1]; s.c., PG-PVA, 0.45 mmol/kg): 91%
- ED50 ([2]; oral, 5% gum arabic in saline): 0.36 mmol/kg
- % Inhibition ([2]; oral, 5% gum arabic, 0.22 mmol/kg): 30%
- % Inhibition [2, 3]: 53%
- % Inhibition [2, 4]: 92%
- ED50 ([2]; oral, PG-PVA in saline): > 0.90 mmol/kg
- % Inhibition ([2]; oral, PG-PVA, 0.45 mmol/kg): 27%
- % Inhibition ([2]; oral, PG-PVA, 0.90 mmol/kg): 43%

Structure (SMILES): Nc1ccccc1C(=O)O [Anthranilic acid, reference compound]
- ED50 ([1]; oral, 5% gum arabic in saline): > 1.46 mmol/kg
- % Inhibition [1, 5]: 18%
- ED50 ([1]; oral, PG-PVA in saline): > 2.19 mmol/kg
- % Inhibition ([1]; oral, PG-PVA, 2.19 mmol/kg): 45%
- ED50 ([1]; s.c., PG-PVA in saline): 0.64 mmol/kg
- % Inhibition ([1]; s.c., PG-PVA, 0.27 mmol/kg): 30%
- % Inhibition ([1]; s.c., PG-PVA, 0.55 mmol/kg): 36%
- % Inhibition ([1]; s.c., PG-PVA, 1.09 mmol/kg): 71%
- ED50 ([2]; oral, 5% gum arabic in saline): 0.83 mmol/kg
- % Inhibition ([2]; oral, 5% gum arabic, 0.36 mmol/kg): 23%
- % Inhibition ([2]; oral, 5% gum arabic, 0.73 mmol/kg): 41%
- % Inhibition [2, 5]: 73%
- ED50 ([2]; oral, PG-PVA in saline): > 1.44 mmol/kg
- % Inhibition ([2]; oral, PG-PVA, 1.46 mmol/kg): 37%

Structure (SMILES): CC(=O)Oc1ccccc1C(=O)O [Aspirin, acetylsalicylic acid, reference compound]
- ED50 ([1]; oral, 5% gum arabic in saline): 1.30 mmol/kg
- % Inhibition [1, 6]: 29%
- % Inhibition [1, 7]: 42%
- % Inhibition ([1]; oral, 5% gum arabic, 2.22 mmol/kg): 66%
- ED50 ([1]; oral, PG-PVA in saline): 0.48 mmol/kg
- % Inhibition ([1]; oral, PG-PVA, 0.21 mmol/kg): 32%
- % Inhibition ([1]; oral, PG-PVA, 0.42 mmol/kg): 41%
- % Inhibition ([1]; oral, PG-PVA, 0.84 mmol/kg): 67%
- ED50 ([1]; s.c., PG-PVA in saline): 0.52 mmol/kg
- % Inhibition ([1]; s.c., PG-PVA, 0.28 mmol/kg): 28%
- % Inhibition ([1]; s.c., PG-PVA, 0.56 mmol/kg): 57%
- % Inhibition ([1]; s.c., PG-PVA, 1.11 mmol/kg): 71%
- ED50 ([2]; oral, 5% gum arabic in saline): 0.62 mmol/kg
- % Inhibition ([2]; oral, 5% gum arabic, 0.28 mmol/kg): 27%
- % Inhibition [2, 6]: 43%
- % Inhibition [2, 7]: 70%
- ED50 ([2]; oral, PG-PVA in saline): 1.41 mmol/kg
- % Inhibition ([2]; oral, PG-PVA, 0.56 mmol/kg): 30%
- % Inhibition ([2]; oral, PG-PVA, 1.11 mmol/kg): 40%
- % Inhibition ([2]; oral, PG-PVA, 2.22 mmol/kg): 63%

Structure (SMILES): CC(C)c1cc(C(=O)[O-])c(O)c(C(C)C)c1.CC(C)c1cc(C(=O)[O-])c(O)c(C(C)C)c1.[Cu+2] [Cu(II)(3,5-dips)2]
- ED50 ([1]; oral, 5% gum arabic in saline): 0.40 mmol/kg
- analgesic effectiveness versus parent ligand ([1]; oral, 5% gum arabic in saline): slightly less effective than its parent ligand
- % Inhibition [1, 8]: 35%
- % Inhibition [1, 9]: 48%
- % Inhibition ([1]; oral, 5% gum arabic, 0.80 mmol/kg): 66%
- analgesic effectiveness versus parent ligand ([1]; oral, PG-PVA): only as effective as its parent ligand
- ED50 ([1]; oral, PG-PVA in saline): 0.43 mmol/kg
- % Inhibition ([1]; oral, PG-PVA, 0.20 mmol/kg): 26%
- % Inhibition ([1]; oral, PG-PVA, 0.40 mmol/kg): 56%
- % Inhibition ([1]; oral, PG-PVA, 0.79 mmol/kg): 62%
- ED50 ([1]; s.c., PG-PVA in saline): 0.20 mmol/kg
- % Inhibition ([1]; s.c., PG-PVA, 0.10 mmol/kg): 27%
- % Inhibition ([1]; s.c., PG-PVA, 0.20 mmol/kg): 45%
- % Inhibition ([1]; s.c., PG-PVA, 0.40 mmol/kg): 74%
- analgesic effectiveness versus parent ligand ([2]; oral, 5% gum arabic): essentially equipotent with its ligand
- ED50 ([2]; oral, 5% gum arabic in saline): 0.43 mmol/kg
- % Inhibition ([2]; oral, 5% gum arabic, 0.10 mmol/kg): 7%
- % Inhibition [2, 8]: 20%
- % Inhibition [2, 9]: 47%
- analgesic effectiveness versus parent ligand ([2]; oral, PG-PVA): more effective than its parent ligand
- ED50 ([2]; oral, PG-PVA in saline): > 0.40 mmol/kg
- % Inhibition ([2]; oral, PG-PVA, 0.40 mmol/kg): 40%
- ED50 ([2]; s.c., PG-PVA in saline): 0.12 mmol/kg
- % Inhibition ([2]; s.c., PG-PVA, 0.05 mmol/kg): 23%
- % Inhibition ([2]; s.c., PG-PVA, 0.10 mmol/kg): 37%
- % Inhibition ([2]; s.c., PG-PVA, 0.20 mmol/kg): 70%

Structure (SMILES): C[C@H](N)C(=O)[O-].C[C@H](N)C(=O)[O-].[Cu+2] [Cu(II)(L-alaninate)2]
- activity versus other copper complexes and parent ligand [1]: less active than the other copper complexes
- ED50 ([1]; oral, 5% gum arabic in saline): 0.92 mmol/kg
- % Inhibition [1, 10]: 22%
- % Inhibition ([1]; oral, 5% gum arabic, 0.83 mmol/kg): 48%
- % Inhibition ([1]; oral, 5% gum arabic, 1.67 mmol/kg): 71%
- ED50 ([2]; oral, 5% gum arabic in saline): > 0.42 mmol/kg
- % Inhibition [2, 10]: 0%

Structure (SMILES): N[C@@H](CSSC[C@H](N)C(=O)[O-])C(=O)[O-].[Cu+2] [Cu(II)(L-cystinate)]
- activity versus other copper complexes and parent ligand [1]: less active than the other copper complexes
- ED50 ([1]; oral, 5% gum arabic in saline): > 0.33 mmol/kg
- % Inhibition [1, 11]: 35%
- ED50 ([2]; oral, 5% gum arabic in saline): > 0.33 mmol/kg
- % Inhibition [2, 11]: 0%

Structure (SMILES): NCC(=O)[O-].NCC(=O)[O-].[Cu+2] [Cu(II)(glycinate)2]
- activity versus other copper complexes and parent ligand [1]: less active than the other copper complexes
- ED50 ([1]; oral, 5% gum arabic in saline): > 1.89 mmol/kg
- % Inhibition ([1]; oral, 5% gum arabic, 1.89 mmol/kg): 48%

Structure (SMILES): NCC(=O)O [Glycine, reference compound]
- ED50 ([1]; oral, 5% gum arabic in saline): > 5.33 mmol/kg
- % Inhibition ([1]; oral, 5% gum arabic, 5.33 mmol/kg): 36%

Structure (SMILES): C[C@H](N)C(=O)O [L-alanine, reference compound]
- ED50 ([1]; oral, 5% gum arabic in saline): > 4.49 mmol/kg
- % Inhibition ([1]; oral, 5% gum arabic, 4.49 mmol/kg): 14%

Structure (SMILES): N[C@@H](CS)C(=O)O [L-cysteine, reference compound]
- ED50 ([1]; oral, 5% gum arabic in saline): > 3.30 mmol/kg
- % Inhibition ([1]; oral, 5% gum arabic, 3.30 mmol/kg): -5%

Structure (SMILES): CN1CC[C@]23c4c5ccc(O)c4O[C@H]2[C@@H](O)C=C[C@H]3[C@H]1C5 [morphine, reference compound]
- ED50 ([2]; Rattus norvegicus, sc, read-out: ED50 (AA)): 0.002 mmol/kg
- ED50 (AA) ([2]; s.c., hydrochloride salt in saline): 0.002 mmol/kg
- % Inhibition ([2]; s.c., hydrochloride salt in saline, 0.001 mmol/kg): 20%
- % Inhibition ([2]; s.c., hydrochloride salt in saline, 0.002 mmol/kg): 40%
- % Inhibition ([2]; s.c., hydrochloride salt in saline, 0.004 mmol/kg): 60%
